Results as given in the supplement of paper PMC10307832.

What was measured:
Experiment in all cases: relative viability (nuclei count vs DMSO), 5 days (fraction); higher = more cells survive
[1] = compound: C1=CC2=NC=CN=C2C=C1/C=C/3\C(=O)NC(=O)S3 + COc1cc2c(Oc3ccc(NC(=O)C4(C(=O)Nc5ccc(F)cc5)CC4)cc3F)ccnc2cc1OCCCN1CCOCC1 [Foretinib] (partner 0.25 µM)
In short: (§1)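 Relative viability was taken as the ratio of nuclei in treated wells to nuclei in vehicle wells. Lung cancer cell lines in 1536-well plates received compounds by pin tool one day after seeding, either one drug alone or a fixed anchor-drug dose plus five library-drug doses (not always all listed) in √10 steps. Nuclei were counted on 4× images after 5 days of treatment, and values are medians of duplicate plates.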

[2] = compound: C1=CC2=NC=CN=C2C=C1/C=C/3\C(=O)NC(=O)S3 + Nc1ncn([C@H]2C[C@H](O)[C@@H](CO)O2)c(=O)n1 [Decitabine] (partner 2 µM)
In short: as §1

BGJ398 + Decitabine = compound: CCN1CCN(c2ccc(Nc3cc(N(C)C(=O)Nc4c(Cl)c(OC)cc(OC)c4Cl)ncn3)cc2)CC1 [BGJ398] + Nc1ncn([C@H]2C[C@H](O)[C@@H](CO)O2)c(=O)n1 [Decitabine] (partner 2 µM)
In short: as §1

BGJ398 + Navitoclax = compound: CCN1CCN(c2ccc(Nc3cc(N(C)C(=O)Nc4c(Cl)c(OC)cc(OC)c4Cl)ncn3)cc2)CC1 [BGJ398] + CC1(C)CCC(c2ccc(Cl)cc2)=C(CN2CCN(c3ccc(C(=O)NS(=O)(=O)c4ccc(N[C@H](CCN5CCOCC5)CSc5ccccc5)c(S(=O)(=O)C(F)(F)F)c4)cc3)CC2)C1 [Navitoclax] (partner 0.5 µM)
In short: as §1

Cell Line	relative viability ([1]; first compound 0.02 µM)	relative viability ([1]; first compound 0.06325 µM)	relative viability ([1]; first compound 0.2 µM)	relative viability ([1]; first compound 0.6325 µM)	relative viability ([1]; first compound 2 µM)	relative viability ([2]; first compound 0.02 µM)	relative viability ([2]; first compound 0.06325 µM)	relative viability ([2]; first compound 0.2 µM)	relative viability ([2]; first compound 0.6325 µM)	relative viability ([2]; first compound 2 µM)	relative viability (BGJ398 + Decitabine; first compound 0.01 µM)	relative viability (BGJ398 + Decitabine; first compound 0.03162 µM)	relative viability (BGJ398 + Decitabine; first compound 0.1 µM)	relative viability (BGJ398 + Decitabine; first compound 0.3162 µM)	relative viability (BGJ398 + Decitabine; first compound 1 µM)	relative viability (BGJ398 + Navitoclax; first compound 0.01 µM)	relative viability (BGJ398 + Navitoclax; first compound 0.03162 µM)	relative viability (BGJ398 + Navitoclax; first compound 0.1 µM)	relative viability (BGJ398 + Navitoclax; first compound 0.3162 µM)	relative viability (BGJ398 + Navitoclax; first compound 1 µM)
201T	0.866	0.977	1.12	1.06	0.758	0.901	0.864	0.824	0.87	0.879	0.958	0.814	0.835	0.797	0.807	1.33	1.19	1.2	1.2	1.17
A549	0.965	1.05	0.889	0.835	0.984	0.292	0.245	0.297	0.273	0.293	0.155	0.288	0.232	0.289	0.223	1.14	1.18	1.23	1.21	1.13
A-427	1.08	1.11	1.13	1.01	1.06	0.541	0.583	0.55	0.538	0.491	0.559	0.564	0.594	0.515	0.481	0.978	0.92	0.914	0.67	0.624
ABC-1	0.93	1.24	0.875	1.27	0.999	1.04	1.31	1.4	1.1	0.806	1.17	0.955	0.966	–	1.18	–	–	–	–	–
BEN	0.787	0.869	0.693	0.666	0.473	0.715	0.774	0.886	0.691	0.635	0.604	0.688	0.796	0.681	0.591	0.0852	0.15	0.0576	0.0618	0.0501
CAL-12T	1.07	1.05	1.09	1.01	1.15	–	–	–	–	–	–	–	–	–	–	1.12	1.38	1.37	1.08	1.13
COR-L23	0.94	0.961	0.96	0.934	0.979	0.481	0.466	0.445	0.414	0.369	0.36	0.438	0.507	0.42	0.365	1.05	0.978	0.986	0.966	1.08
COR-L 105	1	1.39	0.9	0.906	1.06	0.599	0.69	0.673	0.683	0.593	0.636	0.587	0.637	0.601	0.69	0.707	0.805	0.815	0.827	0.598
Calu-6	0.848	0.866	0.843	0.864	0.928	–	–	–	–	–	–	–	–	–	–	0.794	0.838	0.796	0.788	0.795
ChaGo-K-1	0.83	0.673	0.922	0.844	0.95	0.512	0.459	0.533	0.498	0.568	0.503	0.477	0.562	0.558	0.537	1.06	0.913	0.76	0.69	0.444
EBC-1	–	0.105	0.0907	0.0919	0.11	–	–	–	–	–	–	–	–	–	–	0.467	0.526	0.444	0.447	0.396
EKVX	0.753	0.602	0.773	0.541	0.746	0.258	0.399	0.287	0.337	0.373	0.315	0.294	0.388	0.349	0.316	0.896	1.02	1.16	0.874	0.992
EMC-BAC-2	1.04	1.07	1.05	0.903	0.923	0.933	1.01	1.05	0.922	0.808	0.96	1.03	0.97	0.915	0.932	1.14	1.16	1.26	1.15	1.16
EPLC-272H	0.846	0.693	0.696	0.664	0.611	0.351	0.344	0.4	0.356	0.321	0.391	0.3	0.38	0.303	0.323	1.04	0.989	1.16	1.01	1.09
H3255	0.786	0.968	0.881	0.899	0.965	0.6	0.649	0.595	0.534	0.622	0.585	–	0.591	–	0.681	0.477	0.161	0.614	0.408	0.548
HARA	0.857	0.83	0.888	0.841	1.02	0.537	0.587	0.498	0.614	0.63	0.587	0.412	0.389	0.371	0.38	1.11	1.14	1.19	1.13	1.05
HCC-15	0.981	1.02	1.01	1.03	0.928	0.625	0.686	0.717	0.561	0.553	0.571	0.6	0.78	0.73	0.618	0.723	0.75	0.747	0.734	0.769
HCC-44	–	–	–	–	–	0.872	1.07	0.942	0.961	0.843	0.886	0.914	0.959	0.976	0.8	0.797	0.91	1.13	1.06	0.866
